Values quoted from earlier work in patent US20060240013A1, “Diagnostics and therapeutics for diseases associated with bile acid g-protein-coupled receptor 37 (bg37)” (BAYER HEALTHCARE AG, priority 2002, published 2006).

Biological target: T1, BG37 receptor (Homo sapiens, UniProt Q8TDU6)
T1 sequence (Q8TDU6 1-330): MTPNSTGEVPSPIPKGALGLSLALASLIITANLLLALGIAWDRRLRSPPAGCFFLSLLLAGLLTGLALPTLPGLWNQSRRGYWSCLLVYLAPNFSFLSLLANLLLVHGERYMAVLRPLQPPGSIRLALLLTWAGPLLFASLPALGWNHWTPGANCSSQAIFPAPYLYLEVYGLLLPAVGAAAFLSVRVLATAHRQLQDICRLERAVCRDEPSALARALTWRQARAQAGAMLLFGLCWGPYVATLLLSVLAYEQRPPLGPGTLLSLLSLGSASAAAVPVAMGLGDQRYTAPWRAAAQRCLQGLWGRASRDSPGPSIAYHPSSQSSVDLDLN
Settings: intracellular cAMP levels modulated through BG37 receptor; Maruyama et al. (2002)

Structure (SMILES)	rank order of potency of bile acids
C[C@H](CCC(=O)O)[C@H]1CC[C@H]2[C@@H]3[C@H](O)C[C@@H]4C[C@H](O)CC[C@]4(C)[C@H]3CC[C@]12C [chenodeoxycholic acid]	lithocholic acid>deoxycholic acid>chenodeoxycholic acid>cholic acid
C[C@H](CCC(=O)O)[C@H]1CC[C@H]2[C@@H]3[C@H](O)C[C@@H]4C[C@H](O)CC[C@]4(C)[C@H]3C[C@H](O)[C@]12C [cholic acid]	lithocholic acid>deoxycholic acid>chenodeoxycholic acid>cholic acid
